What was measured:
Assay in all cases: relative viability (nuclei count vs DMSO), 5 days (fraction); higher = more cells survive
Linifanib + Bortezomib = compound: Cc1ccc(F)c(NC(=O)Nc2ccc(-c3cccc4[nH]nc(N)c34)cc2)c1 [Linifanib] + CC(C)C[C@H](NC(=O)[C@H](Cc1ccccc1)NC(=O)c1cnccn1)B(O)O [Bortezomib] (partner 0.002 µM)
In short: (§1)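 Nuclei were stained with Hoechst during a one-step fixation (final 0.05% Triton X-100, 1% formaldehyde, 1 ug/ml Hoechst) carried out 5 days after dosing, then counted on 4× images. The cells, lung cancer lines in 1536-well plates, had been dosed by pin tool the day after seeding with one drug alone or a fixed anchor-drug dose plus five library-drug doses (not always all listed) in √10 steps. Relative viability is the nuclei count in treated wells divided by that in vehicle wells, and each value is the median of duplicate plates.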

Linifanib + OSI-027 = compound: Cc1ccc(F)c(NC(=O)Nc2ccc(-c3cccc4[nH]nc(N)c34)cc2)c1 [Linifanib] + COc1cccc2cc(-c3nc([C@H]4CC[C@H](C(=O)O)CC4)n4ncnc(N)c34)[nH]c12 [OSI-027] (partner 0.5 µM)
In short: as §1

Linifanib + Tozasertib = compound: Cc1ccc(F)c(NC(=O)Nc2ccc(-c3cccc4[nH]nc(N)c34)cc2)c1 [Linifanib] + Cc1cc(Nc2cc(N3CCN(C)CC3)nc(Sc3ccc(NC(=O)C4CC4)cc3)n2)n[nH]1 [Tozasertib] (partner 0.1 µM)
In short: as §1

Linifanib + Foretinib = compound: Cc1ccc(F)c(NC(=O)Nc2ccc(-c3cccc4[nH]nc(N)c34)cc2)c1 [Linifanib] + COc1cc2c(Oc3ccc(NC(=O)C4(C(=O)Nc5ccc(F)cc5)CC4)cc3F)ccnc2cc1OCCCN1CCOCC1 [Foretinib] (partner 0.25 µM)
In short: as §1

Linifanib + Pemetrexed = compound: Cc1ccc(F)c(NC(=O)Nc2ccc(-c3cccc4[nH]nc(N)c34)cc2)c1 [Linifanib] + Nc1nc2[nH]cc(CCc3ccc(C(=O)N[C@@H](CCC(=O)O)C(=O)O)cc3)c2c(=O)[nH]1 [Pemetrexed] (partner 0.2 µM)
In short: as §1

Linifanib + Decitabine = compound: Cc1ccc(F)c(NC(=O)Nc2ccc(-c3cccc4[nH]nc(N)c34)cc2)c1 [Linifanib] + Nc1ncn([C@H]2C[C@H](O)[C@@H](CO)O2)c(=O)n1 [Decitabine] (partner 2 µM)
In short: as §1

Cell Line | relative viability (Linifanib + Bortezomib; first compound 0.03162 µM) | relative viability (Linifanib + Bortezomib; first compound 0.1 µM) | relative viability (Linifanib + Bortezomib; first compound 0.3162 µM) | relative viability (Linifanib + OSI-027; first compound 0.03162 µM) | relative viability (Linifanib + OSI-027; first compound 0.1 µM) | relative viability (Linifanib + OSI-027; first compound 0.3162 µM) | relative viability (Linifanib + Tozasertib; first compound 0.03162 µM) | relative viability (Linifanib + Tozasertib; first compound 0.1 µM) | relative viability (Linifanib + Tozasertib; first compound 0.3162 µM) | relative viability (Linifanib + Foretinib; first compound 0.03162 µM) | relative viability (Linifanib + Foretinib; first compound 0.1 µM) | relative viability (Linifanib + Foretinib; first compound 0.3162 µM) | relative viability (Linifanib + Pemetrexed; first compound 0.03162 µM) | relative viability (Linifanib + Pemetrexed; first compound 0.1 µM) | relative viability (Linifanib + Pemetrexed; first compound 0.3162 µM) | relative viability (Linifanib + Decitabine; first compound 0.03162 µM) | relative viability (Linifanib + Decitabine; first compound 0.1 µM) | relative viability (Linifanib + Decitabine; first compound 0.3162 µM)
RERF-LC-KJ | 1.25 | 1.22 | 0.991 | 0.572 | 0.654 | 0.616 | 0.46 | 0.531 | 0.578 | 0.796 | 0.932 | 0.814 | 0.502 | 0.494 | 0.484 | 0.707 | 0.651 | 0.717
NCI-H1666 | 0.892 | 0.756 | 0.643 | 0.882 | 0.903 | 0.784 | 0.626 | 0.666 | 0.658 | 0.923 | 0.969 | 0.998 | 0.943 | 0.876 | 0.892 | 0.856 | 0.691 | 0.698
EKVX | 0.863 | 1.03 | 0.698 | 0.756 | 0.707 | 0.712 | 0.477 | 0.448 | 0.338 | 0.787 | 0.886 | 0.686 | 0.388 | 0.413 | 0.399 | 0.314 | 0.359 | 0.35
BEN | 0.723 | 0.975 | 0.778 | 0.28 | 0.295 | 0.311 | 0.446 | 0.441 | 0.484 | 0.718 | 0.774 | 0.608 | 0.716 | 0.866 | 0.853 | 0.772 | 0.818 | 0.696
NCI-H322M | 1.24 | 1.21 | 1.27 | 0.629 | 0.584 | 0.503 | 0.5 | 0.515 | 0.407 | 0.939 | 1.06 | 1.02 | 0.598 | 0.589 | 0.65 | 0.732 | 0.697 | 0.77
SW 1573 | 0.972 | 1.04 | 1.08 | 0.648 | 0.665 | 0.625 | 0.195 | 0.193 | 0.189 | 0.897 | 1.21 | 0.843 | 0.857 | 0.879 | 0.777 | 0.514 | 0.604 | 0.584
HCC-366 | 1 | 1.1 | 1.02 | 0.898 | 1.29 | 0.795 | 0.0836 | 0.0997 | 0.105 | 1.01 | 0.981 | 0.826 | 0.159 | 0.15 | 0.139 | 0.417 | 0.328 | 0.336
A-427 | 1.04 | 1.05 | 0.949 | 0.526 | 0.512 | 0.423 | 0.227 | 0.204 | 0.197 | 1.02 | 1.34 | 1.02 | 0.96 | 0.992 | 0.945 | 0.583 | 0.612 | 0.579

Reference: the supplement of paper PMC10307832
